In brackets after ≈: the same amount, converted by molar mass.
Key:
MSSA-4 = assay: MIC, clinical isolate of S. aureus; type: cell-based; conditions: Staphylococcus aureus; clinical isolate MSSA-4; read-out: MIC
Procedure: (§1) The antibacterial activity of the thiosemicarbazides 1–9 and antibiotics (amoxicillin, gentamicin, levofloxacin, linezolid, and vancomycin) was tested on the Gram-positive strains (Microbiologics, St. Cloud, MN, USA) (S. aureus ATCC 25923, S. aureus ATCC 6538, S. epidermidis ATCC 12228, B. subtilis ATCC 6633, B. cereus ATCC 10876, M. luteus ATCC 10240), the Gram-negative strains (Microbiologics, St. Cloud, MN, USA) (E. coli ATCC 25922, K. pneumoniae ATCC 13883, P. mirabilis ATCC 12453, P. aeruginosa ATCC 9027), and clinical isolates of S. aureus (Medical University of Lublin, Lublin, Poland) (MSSA-1, MSSA-2, MSSA-3, MSSA-4, MRSA-1).

MSSA-2 = assay: MIC, clinical isolate of S. aureus; type: cell-based; conditions: Staphylococcus aureus; clinical isolate MSSA-2; read-out: MIC
Procedure: as §1

MSSA-1 = assay: MIC, clinical isolate of S. aureus; type: cell-based; conditions: Staphylococcus aureus; clinical isolate MSSA-1; read-out: MIC
Procedure: as §1

MRSA-1 = assay: MIC, clinical isolate of S. aureus; type: cell-based; conditions: Staphylococcus aureus; clinical isolate MRSA-1; read-out: MIC
Procedure: as §1

MSSA-3 = assay: MIC, clinical isolate of S. aureus; type: cell-based; conditions: Staphylococcus aureus; clinical isolate MSSA-3; read-out: MIC
Procedure: as §1

M. luteus ATCC 10240 = assay: MIC, broth microdilution; type: cell-based; conditions: Micrococcus luteus, ATCC10240; M. l. ATCC 10240; compounds 6–9 and antibiotics; read-out: MIC
Procedure: as §1

[1] = tested on: S. epidermidis ATCC 12228; assay: MIC, broth microdilution; type: cell-based; conditions: Staphylococcus epidermidis, ATCC12228; S. e. ATCC 12228; compounds 6–9 and antibiotics; read-out: MIC
Procedure: as §1

S. aureus ATCC 6538 = assay: MIC, broth microdilution; type: cell-based; conditions: Staphylococcus aureus, ATCC6538; S. a. ATCC 6538; compounds 6–9 and antibiotics; read-out: MIC
Procedure: as §1

B. subtilis ATCC 6633 = assay: MIC, broth microdilution; type: cell-based; conditions: Bacillus subtilis, ATCC6633; B. s. ATCC 6633; compounds 6–9 and antibiotics; read-out: MIC
Procedure: as §1

B. cereus ATCC 10876 = assay: MIC, broth microdilution; type: cell-based; conditions: Bacillus cereus, ATCC10876; B. c. ATCC 10876; compounds 6–9 and antibiotics; read-out: MIC
Procedure: as §1

S. aureus ATCC 25923 = assay: MIC, broth microdilution; type: cell-based; conditions: Staphylococcus aureus, ATCC25923; S. a. ATCC 25923; compounds 6–9 and antibiotics; read-out: MIC
Procedure: as §1

S. aureus DNA gyrase = target: T1, S. aureus DNA gyrase (Staphylococcus aureus, UniProt P0A0K8+P20831); assay: Gyrase supercoiling assay; type: biochemical; conditions: 100 µM; read-out: S. aureus Gyrase DNA Inhibition (%) ± SD
T1 construct: purchased Inspiralis, Norwich, UK
Procedure: Supercoiling assay: The assays were performed using S. aureus Gyrase Supercoiling Assay Kits (Inspiralis, Norwich, UK). Briefly, […] pBR322 plasmid DNA (0.5 µg) was incubated with 1 unit of gyrase, in the dedicated supercoiling assay buffer supplied by the manufacturer, in the presence of varying concentrations of the test compounds. Reactions were carried out at 37 °C for 1 h and then terminated by the addition of equal volume of 2 × STOP Buffer (40% sucrose, 100 mM Tris-Cl pH 7.5, 1 mM EDTA, and 0.5 mg/mL bromophenol blue) and chloroform/iso-amyl alcohol. Samples were vortexed, centrifuged, and run through a 15 cm 1% agarose gel in TAE buffer (40 mM Tris-acetate, 2 mM EDTA) for 3 h at 50 V. Gels were stained with ethidium bromide and visualized under UV light.

[2] = tested on: human foreskin fibroblast Hs27 cells (CRL-1634); assay: MTT cytotoxicity assay; type: cell-based; conditions: Homo sapiens, 24 h of treatment
Procedure: (§2) A critical factor in research and development of new antibacterial agents is their abilities to selectively target bacterial cells without toxicity to mammalian cells. Thus, in order to test if antibacterial activity of title thiosemicarbazides is not due to their general toxicity, their effect on mammalian cell viability was assessed using human foreskin fibroblast Hs27 cells (CRL-1634) via MTT assay.
(§3) Cytotoxic properties of the compounds were evaluated using human foreskin fibroblast cells Hs27 (ATCC CRL-1634) (ATCC, Manassas, VA, USA) that were cultured in DMEM-high glucose (Sigma Aldrich, St. Louis, MO, USA). Medium was supplemented with 10% fetal bovine serum (FBS, Sigma Aldrich), 100 U/mL of penicillin, and […] of streptomycin (PenStrep, Sigma Aldrich, St. Louis, MO, USA). Cells were incubated at 37 °C in a humidified atmosphere of 5% CO2. Stock solutions of the tested compounds were prepared dissolving in a sterile dimethyl sulfoxide (DMSO) to the concentration of 50 mg/mL. The cells were seeded into 96-well sterile plates (Nunc) at a cell density of 1 × 10^5 cells/mL. After 24 h of incubation, the medium was removed from each well, and then cells were incubated for the next 24 h with tested compounds (in a fixed dose of 25 µg/mL) in DMEM-high glucose containing 2% FBS. Control cells were cultured only with medium containing 2% addition of FBS. Cytotoxicity of the compounds was evaluated using MTT assay, which is based on the conversion of 3-(4,5-dimethylthiazol-2-yl)-2,5- diphenyltetrazolium bromide (MTT) into dark-blue formazan crystals. Briefly, after 24-h incubation of cells with varying concentrations of the tested compounds, culture medium was removed from the plates. Cells were washed with PBS, and then 100 µL of medium containing 10% MTT solution (5 mg/mL) was added to each well. Cells were incubated for the next 3 h at 37 °C in an atmosphere of 5% CO2. Next, 100 µL (per well) of 10% sodium dodecyl sulfate (SDS) buffer solution was added to dissolve formazan crystals and after an overnight incubation the absorbance was measured at 570 nm using a microplate reader (Epoch, BioTek Instruments, Inc., Winooski, VT, USA).

MTT cytotoxicity assay = type: cell-based, human; conditions: human, Hs27 foreskin fibroblast cells (ATCC CRL-1634), 25 µg/mL, 24 h, vehicle control = 100%
Procedure: as §2, §3

Row | MIC (MSSA-4) [µg/mL] | MIC (MSSA-2) [µg/mL] | MIC (MSSA-1) [µg/mL] | MIC (MRSA-1) [µg/mL] | MIC (MSSA-3) [µg/mL] | MIC (M. luteus ATCC 10240) [µg/mL] | MIC [1] [µg/mL] | MIC (S. aureus ATCC 6538) [µg/mL] | MIC (B. subtilis ATCC 6633) [µg/mL] | MIC (B. cereus ATCC 10876) [µg/mL] | MIC (S. aureus ATCC 25923) [µg/mL] | Structure (SMILES) | inhibition at 100 µM (S. aureus DNA gyrase) [%] | IC50 [2] [µg/mL] | viability at 24 h, 25 µg/mL (MTT cytotoxicity assay) [%]
1 | 31.2 (≈ 85.5 µM) | 0.12 (≈ 0.328 µM) | 1.95 (≈ 5.34 µM) | 31.2 (≈ 85.5 µM) | 0.98 (≈ 2.68 µM) | 0.24 (≈ 0.657 µM) | 7.81 (≈ 21.4 µM) | 0.12 (≈ 0.328 µM) | 0.12 (≈ 0.328 µM) | > 250 | 0.12 (≈ 0.328 µM) | CC1(C)S[C@@H]2[C@H](NC(=O)[C@H](N)c3ccc(O)cc3)C(=O)N2[C@H]1C(=O)O [AMX, amoxicillin, reference compound] |  |  | 
2 | 1.95 (≈ 4.08 µM) | 0.49 (≈ 1.03 µM) | 0.98 (≈ 2.05 µM) | 0.98 (≈ 2.05 µM) | 7.81 (≈ 16.4 µM) | 0.98 (≈ 2.05 µM) | 0.12 (≈ 0.251 µM) | 0.98 (≈ 2.05 µM) | 0.24 (≈ 0.503 µM) | 15.6 (≈ 32.7 µM) | 1.95 (≈ 4.08 µM) | CNC(C)C1CCC(N)C(OC2C(N)CC(N)C(OC3OCC(C)(O)C(NC)C3O)C2O)O1 (stereo not drawn) [GN, gentamicin, reference compound] |  |  | 

Row | Structure (SMILES) | MIC (MSSA-4) [µg/mL] | MIC (MSSA-2) [µg/mL] | MIC (MSSA-1) [µg/mL] | MIC (MRSA-1) [µg/mL] | MIC (MSSA-3) [µg/mL] | MIC (M. luteus ATCC 10240) [µg/mL] | MIC [1] [µg/mL] | MIC (S. aureus ATCC 6538) [µg/mL] | MIC (B. subtilis ATCC 6633) [µg/mL] | MIC (B. cereus ATCC 10876) [µg/mL] | MIC (S. aureus ATCC 25923) [µg/mL] | inhibition at 100 µM (S. aureus DNA gyrase) [%] | IC50 [2] [µg/mL] | viability at 24 h, 25 µg/mL (MTT cytotoxicity assay) [%]
3 | C[C@H]1COc2c(N3CCN(C)CC3)c(F)cc3c(=O)c(C(=O)O)cn1c23 [LEV, levofloxacin, reference compound] | 0.12 (≈ 0.332 µM) | 0.24 (≈ 0.664 µM) | 0.12 (≈ 0.332 µM) | 31.2 (≈ 86.5 µM) | 0.12 (≈ 0.332 µM) | 0.98 (≈ 2.71 µM) | 0.12 (≈ 0.332 µM) | 0.24 (≈ 0.664 µM) | 0.12 (≈ 0.332 µM) | 0.12 (≈ 0.332 µM) | 0.24 (≈ 0.664 µM) | 92.4 ± 3.74 | > 25 | 101

— article PMC7288171, “Synergistic Effects of Thiosemicarbazides with Clinical Drugs against S. aureus” (Molecules, 2020)
